This assay deals with T1, Human TREM2 (Homo sapiens, UniProt Q9NZC2).
T1 construct: expressed in transfected cells
The experiment in a line: Human TREM2 activity: cellular phosphorylation of Syk (AlphaLISA SureFire Ultra p-SYK) in HEK293/DAP12+TREM2 stable cell line. Format: cell-based. The following applies: for EC50: phospho-Syk AlphaLISA signal, HEK293/DAP12+TREM2 cells, concentration giving 50% of maximal response, read-out: EC50. Put shortly: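 The read-out was p-Syk (Tyr525/526), measured by AlphaLISA in lysates of a stable HEK293/DAP12+TREM2 clone. Cells (10,000/well, plated the day before) received compound for 30 min at 37 °C. Dosing used 8 points in quadruplicate, top 100 μM with 1:6 dilution, 0.5% final DMSO.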

Setting [1] is: HEK293, maximal response relative to reference agonist example 1B (remaining examples), read-out: Emax.

Like-named read-outs stand apart in the source and are kept apart here.

Emax and EC50 data for 25 molecules are collected here from patent US20260200926A1, “TREM2 MODULATORS” (Muna Therapeutics ApS, priority 2022, published 2026).

T1 sequence (Q9NZC2 19-230): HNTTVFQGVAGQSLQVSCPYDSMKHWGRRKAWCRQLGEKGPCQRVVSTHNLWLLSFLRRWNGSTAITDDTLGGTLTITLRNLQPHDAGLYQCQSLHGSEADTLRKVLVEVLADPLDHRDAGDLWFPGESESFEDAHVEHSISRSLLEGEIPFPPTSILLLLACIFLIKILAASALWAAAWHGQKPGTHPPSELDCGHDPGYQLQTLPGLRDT
T1 sequence (O43914 22-113 partner): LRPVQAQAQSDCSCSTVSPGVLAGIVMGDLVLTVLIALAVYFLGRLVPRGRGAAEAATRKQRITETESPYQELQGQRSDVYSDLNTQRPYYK

Regarding `Cc1cc([C@H]2CN(c3nc(-c4ccc(F)cc4F)c4nc(C)n(C)c(=O)c4n3)CCO2)ccn1` (single isomer, unassigned) [Example 122B], the EC50 was in the range of 0.1 to 1 µM. The Emax under setting [1] was < 75%.

In the case of `Cc1cc([C@H]2CN(c3nc(-c4ccc(F)cc4F)c4nc(C)n(C)c(=O)c4n3)CC(F)(F)O2)ccn1` (single isomer, unassigned) [Example 169B], the EC50 was in the range of 0.01 to 0.1 µM. For the same molecule, the Emax under setting [1] was 75 to 110%.

For the molecule `Cc1cc([C@@H]2CN(c3nc(-c4ccc(F)cc4F)c4nc(C(F)(F)F)n(C)c(=O)c4n3)C[C@H](C)O2)ccn1` (single isomer, unassigned) [Example 191A], the EC50 is < 0.001 µM. In addition, the Emax under setting [1] was < 75%.

Take `Cc1nc2c(-c3ccc(C(F)(F)F)cc3F)nc(N3C[C@H](c4cnn(C)c4)OC4(CC4)C3)cc2c(=O)n1C` (single isomer, unassigned) [Example 145B]: the EC50 is 0.01 to 0.1 µM. The Emax under setting [1] is < 75%.

Turning to `Cc1cc([C@H]2CN(c3cc4c(=O)n(C)c(C)nc4c(-c4ccc(C(F)(F)F)cc4F)n3)CCO2)ccn1` (single isomer, unassigned) [Example 137B], the EC50 was in the range of 0.1 to 1 µM. Besides, the Emax under setting [1] is 75 to 110%.

For the molecule `COc1ccc(Cn2c(C)nc3c(-c4ccc(Cl)cc4F)nc(N4CCOC(c5cnn(C)c5)C4)nc3c2=O)cc1` (centres unmarked) [Example 59, 8-(4-chloro-2-fluorophenyl)-3-(4-methoxybenzyl)-2-methyl-6-(2-(1-methyl-1H-pyrazol-4-yl)morpholino)pyrimido[5,4-d]pyrimidin-4(3H)-one], the EC50 is 0.1 to 1 µM. In addition, the Emax under setting [1] fell in the range of 75 to 110%.

As to `Cc1cc2c(-c3ccc(Cl)cc3F)nc(N3CCOC(c4cnn(C)c4)C3)nc2c(=O)n1C` (centres unmarked) [Example 114, 4-(4-chloro-2-fluorophenyl)-6,7-dimethyl-2-(2-(1-methyl-1H-pyrazol-4-yl)morpholino)pyrido[3,4-d]pyrimidin-8 (7H)-one], the EC50 was 0.001 to 0.01 µM. The Emax under setting [1] was in the range of 75 to 110%.

Turning to `Cc1nc2c(-c3ccc(C(F)(F)F)cc3F)nc(N3C[C@@H](c4cnn(C)c4)OC(C)(C)C3)nc2c(=O)n1C` (single isomer, unassigned) [Example 100A], the EC50 lay within 0.01 to 0.1 µM. Under setting [1], the Emax lay within 75 to 110%.

For the molecule `Cc1nc2c(-c3ccc(F)cc3F)nc(N3CC(C)OC(c4cnn(C5CC5)c4)C3)nc2c(=O)n1C` (racemic) [Example 177C, 6-(2-(1-cyclopropyl-1H-pyrazol-4-yl)-6-methylmorpholino)-8-(2,4-difluorophenyl)-2,3-dimethylpyrimido[5,4-d]pyrimidin-4 (3H)-one], the EC50 lay within 0.1 to 1 µM. Under setting [1], the Emax was < 75%.

`C[C@H]1CN(c2cc3c(=O)n(C)c(C(F)(F)F)nc3c(-c3ccc(F)cc3F)n2)C[C@@H](c2cnn(C3CC3)c2)O1` (single isomer, unassigned) [Example 193A]: the EC50 fell in the range of 0.001 to 0.01 µM. Besides, the maximal response (Emax) under setting [1] is 75 to 110%.

For “6-((2R,4S)-2-(1-cyclopropyl-1H-pyrazol-4-yl)tetrahydro-2H-pyran-4-yl)-8-(2-fluoro-4-(trifluoromethyl)phenyl)-2,3-dimethylquinazolin-4 (3H)-one [Example 120B]”, the EC50 was in the range of 0.01 to 0.1 µM. Besides, for the setting “maximal response relative to reference agonist example 1B (remaining examples)”, the Emax entry was “++ (75-110%)”.

As for `Cc1nc2c(-c3ccc(C(F)(F)F)cc3F)nc(N3C[C@@H](c4cnn(C)c4)OC4(CCC4)C3)cc2c(=O)n1C` (single isomer, unassigned) [Example 143A], the EC50 lay within 0.001 to 0.01 µM. In addition, under setting [1], the Emax was in the range of 75 to 110%.

On to `Cc1cc([C@@H]2CN(c3cc4c(=O)n(C)c(C)nc4c(-c4ccc(C(F)(F)F)nc4)n3)CC(C)(C)O2)ccn1` (single isomer, unassigned) [Example 161A], for which the EC50 fell in the range of 0.1 to 1 µM. Under setting [1], the Emax was < 75%.

In the case of `Cc1nc2c(C3CC4(C3)CC(F)(F)C4)nc(N3CCOC(c4cnn(C)c4)C3)nc2c(=O)n1C` (centres unmarked) [Example 72, 8-(6,6-difluorospiro[3.3]heptan-2-yl)-2,3-dimethyl-6-(2-(1-methyl-1H-pyrazol-4-yl)morpholino)pyrimido[5,4-d]pyrimidin-4 (3H)-one], the EC50 is 0.1 to 1 µM. Further, the Emax under setting [1] was 75 to 110%.

Take `Cc1nc2c(-c3ccc(Cl)cc3F)nc(N3CCOC(c4cnn(C5COC5)c4)C3)nc2c(=O)n1C` (centres unmarked) [Example 40, 8-(4-chloro-2-fluorophenyl)-2,3-dimethyl-6-(2-(1-(oxetan-3-yl)-1H-pyrazol-4-yl)morpholino)pyrimido[5,4-d]pyrimidin-4 (3H)-one]: the EC50 lay within 0.01 to 0.1 µM. Under setting [1], the maximal response (Emax) is 75 to 110%.

For `Cn1cc([C@H]2CN(c3nc(-c4cc(F)c(F)cc4F)c4nc(C(F)(F)F)n(C)c(=O)c4n3)CC3(CC3)O2)cn1` (single isomer, unassigned) [Example 162B], the EC50 lay within 0.01 to 0.1 µM. Also, under setting [1], the Emax was < 75%.

On to `Cc1cc([C@H]2CN(c3cc4c(=O)n(C)c(C)nc4c(-c4ccc(C(F)F)nc4)n3)C[C@@H](C)O2)ccn1` (single isomer, unassigned) [Example 192B], for which the EC50 was 0.001 to 0.01 µM. The Emax under setting [1] was 75 to 110%.

For `Cc1nc2c(-c3ccc(Cl)cc3F)cc([C@H]3CCO[C@@H](c4cnn(C5CC5)c4)C3)cc2c(=O)n1C` (single isomer, unassigned) [Example 119B], the EC50 was in the range of 0.001 to 0.01 µM. Besides, the Emax under setting [1] is 75 to 110%.

Turning to `Cc1nc2c(-c3ccc(Cl)cc3F)nc(N3C[C@H](c4cnn(C)c4)OC4(CC4)C3)c(F)c2c(=O)n1C` (single isomer, unassigned) [Example 173B], the EC50 was in the range of 0.01 to 0.1 µM. For the same molecule, the Emax under setting [1] was < 75%.

On to `Cc1nc2c(-c3cc(F)c(F)cc3F)nc([C@H]3CCO[C@@H](c4cnn(C5CC5)c4)C3)cc2c(=O)n1C` (single isomer, unassigned) [Example 139B], for which the EC50 was in the range of 0.1 to 1 µM. In addition, the Emax under setting [1] was < 75%.

Consider `Cc1nc2c(-c3ccc(Cl)cc3F)nc(N3CCOC4(CCCC4)C3)nc2c(=O)n1C` [Example 54, 8-(4-chloro-2-fluorophenyl)-2,3-dimethyl-6-(6-oxa-9-azaspiro[4.5]decan-9-yl)pyrimido[5,4-d]pyrimidin-4(3H)-one], for which the EC50 is > 1 µM. For the same molecule, under setting [1], the Emax was < 75%.

Turning to `Cc1nc2c(-c3ccc(Cl)cc3F)nc(N3C[C@H](c4cnn(C)c4)OC(C)(C)C3)cc2c(=O)n1C` (single isomer, unassigned) [Example 112B], the EC50 is 0.1 to 1 µM. Further, the Emax under setting [1] was < 75%.

For `Cc1nc2c(-c3ccc(Cl)cc3F)nc(N3CCO[C@H](c4cnn(C)c4)C3)nc2c(=O)n1C` (single isomer, unassigned) [Example 1A], the EC50 lay in the range of 0.1 to 1 µM. The Emax (HEK293, maximal response relative to reference agonist human TREM2 MAB1828 (examples 1, 1A and 1B), read-out: Emax) was in the range of 75 to 110%.

Take `Cc1cc([C@@H]2CN(c3cc4c(=O)n(C)c(C)nc4c(-c4ccc(C(F)F)nc4)n3)CC(C)(C)O2)ccn1` (single isomer, unassigned) [Example 180A]: the EC50 is > 1 µM. Moreover, the Emax under setting [1] was < 75%.

With `Cc1nc2c(-c3ccc(Cl)cc3F)nc(N3CCO[C@@H](c4cnn(C)c4)C3)nc2c(=O)[nH]1` (single isomer, unassigned) [Example 203B], the EC50 lay within 0.1 to 1 µM. Besides, the Emax under setting [1] was < 75%.

What is called Emax is the size of the effect at its maximum, as opposed to the concentration needed. A word on the EC50: it is the concentration at which the effect is half-maximal.
